Measured values as given in paper PMC6407913, “DREADD Agonist 21 Is an Effective Agonist for Muscarinic-Based DREADDs in Vitro and in Vivo” (ACS Pharmacology & Translational Science, 2018).
Several values for one entry are separate records, joined by “and”; a condition that tells them apart may be missing. Equal entries are not always repeated.

Assays:
Type in all cases: cell-based
[1] = target: T1, 318 nonolfactory human GPCRs (Homo sapiens, UniProt O14843); details: FFA3; C21 5 µM
T1 construct: expressed in transfected cells; host or cells: HTLA cells, transient

[2] = target: T2, 318 nonolfactory human GPCRs (Homo sapiens, UniProt P08912); details: CHRM5; C21 5 µM
T2 construct: expressed in transfected cells; host or cells: HTLA cells, transient

[3] = target: T3, 318 nonolfactory human GPCRs (Homo sapiens, UniProt P21452); details: TACR2; C21 5 µM
T3 construct: expressed in transfected cells; host or cells: HTLA cells, transient

[4] = target: 318 nonolfactory human GPCRs (Homo sapiens, UniProt P21728); details: DRD1; C21 5 µM
[5] = target: 318 nonolfactory human GPCRs (Homo sapiens, UniProt P21917); details: DRD4; C21 5 µM
[6] = target: T4, 318 nonolfactory human GPCRs (Homo sapiens, UniProt P24530); details: EDNRB; C21 5 µM
T4 construct: expressed in transfected cells; host or cells: HTLA cells, transient
T4 sequence (P24530 27-442): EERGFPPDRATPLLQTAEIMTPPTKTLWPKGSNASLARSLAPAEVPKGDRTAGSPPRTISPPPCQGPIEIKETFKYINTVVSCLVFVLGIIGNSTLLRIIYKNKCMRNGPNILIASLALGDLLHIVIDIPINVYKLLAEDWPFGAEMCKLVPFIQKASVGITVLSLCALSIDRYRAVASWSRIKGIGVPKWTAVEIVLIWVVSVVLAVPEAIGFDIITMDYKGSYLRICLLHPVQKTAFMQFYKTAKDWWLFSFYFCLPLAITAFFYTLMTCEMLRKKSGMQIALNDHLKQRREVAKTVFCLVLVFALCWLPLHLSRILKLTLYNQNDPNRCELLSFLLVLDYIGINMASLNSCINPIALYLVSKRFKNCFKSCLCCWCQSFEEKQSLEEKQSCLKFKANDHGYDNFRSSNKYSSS

[7] = target: T5, 318 nonolfactory human GPCRs (Homo sapiens, UniProt P25105); details: PTAFR; C21 5 µM
T5 construct: expressed in transfected cells; host or cells: HTLA cells, transient

[8] = target: 318 nonolfactory human GPCRs (Homo sapiens, UniProt P28335, I156V/I160V); details: HTR2C VNV; C21 5 µM
[9] = target: 318 nonolfactory human GPCRs (Homo sapiens, UniProt P32239); details: CCKBR; C21 5 µM
Sequence of 318 nonolfactory human GPCRs (Homo sapiens, UniProt P32239) (P32239 whole entry): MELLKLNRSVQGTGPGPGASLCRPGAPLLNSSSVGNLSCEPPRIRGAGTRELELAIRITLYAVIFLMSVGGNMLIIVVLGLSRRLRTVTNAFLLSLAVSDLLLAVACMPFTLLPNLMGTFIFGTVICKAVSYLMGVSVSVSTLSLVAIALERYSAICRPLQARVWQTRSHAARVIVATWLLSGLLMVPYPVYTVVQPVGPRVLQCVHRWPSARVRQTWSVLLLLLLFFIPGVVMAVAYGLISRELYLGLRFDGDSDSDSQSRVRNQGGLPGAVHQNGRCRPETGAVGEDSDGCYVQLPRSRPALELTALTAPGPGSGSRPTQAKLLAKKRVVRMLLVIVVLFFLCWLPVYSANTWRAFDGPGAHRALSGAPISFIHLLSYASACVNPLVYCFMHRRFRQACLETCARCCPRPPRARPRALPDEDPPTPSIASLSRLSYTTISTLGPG

[10] = target: 318 nonolfactory human GPCRs (Homo sapiens, UniProt P46093); details: GPR4; C21 5 µM
[11] = target: 318 nonolfactory human GPCRs (Homo sapiens, UniProt P47211); details: GAL1; C21 5 µM
[12] = target: T6, 318 nonolfactory human GPCRs (Homo sapiens, UniProt P47871); details: GCGR; C21 5 µM
T6 construct: expressed in transfected cells; host or cells: HTLA cells, transient
T6 sequence (P47871 26-477): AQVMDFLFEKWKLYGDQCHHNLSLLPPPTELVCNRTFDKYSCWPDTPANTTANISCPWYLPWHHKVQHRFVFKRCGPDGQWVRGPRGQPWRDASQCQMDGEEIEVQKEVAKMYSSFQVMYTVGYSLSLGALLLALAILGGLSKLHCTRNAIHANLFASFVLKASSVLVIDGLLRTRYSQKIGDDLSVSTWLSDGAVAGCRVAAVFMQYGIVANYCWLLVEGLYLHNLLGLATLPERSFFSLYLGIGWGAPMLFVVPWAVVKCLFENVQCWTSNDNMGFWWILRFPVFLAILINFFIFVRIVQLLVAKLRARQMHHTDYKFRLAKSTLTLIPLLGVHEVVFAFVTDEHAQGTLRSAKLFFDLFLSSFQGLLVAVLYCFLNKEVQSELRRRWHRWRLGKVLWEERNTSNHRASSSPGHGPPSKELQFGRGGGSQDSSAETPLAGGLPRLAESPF

[13] = target: T7, 318 nonolfactory human GPCRs (Homo sapiens, UniProt P50391); details: NPY4R; C21 5 µM
T7 construct: expressed in transfected cells; host or cells: HTLA cells, transient

[14] = target: T8, 318 nonolfactory human GPCRs (Homo sapiens, UniProt P51684); details: CCR6; C21 5 µM
T8 construct: expressed in transfected cells; host or cells: HTLA cells, transient
T8 sequence (P51684 whole entry): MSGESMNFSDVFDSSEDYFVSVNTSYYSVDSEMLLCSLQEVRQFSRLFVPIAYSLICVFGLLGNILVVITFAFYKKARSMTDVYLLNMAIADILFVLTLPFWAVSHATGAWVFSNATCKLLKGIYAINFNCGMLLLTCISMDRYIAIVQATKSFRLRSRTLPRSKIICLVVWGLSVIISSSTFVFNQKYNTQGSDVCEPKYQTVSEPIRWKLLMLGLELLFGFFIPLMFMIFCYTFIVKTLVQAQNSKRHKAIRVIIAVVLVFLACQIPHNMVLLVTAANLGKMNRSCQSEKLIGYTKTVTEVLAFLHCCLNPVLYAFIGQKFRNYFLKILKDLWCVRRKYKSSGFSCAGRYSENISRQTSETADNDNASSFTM

[15] = target: T9, 318 nonolfactory human GPCRs (Homo sapiens, UniProt Q01726); details: MC1R; C21 5 µM
T9 construct: expressed in transfected cells; host or cells: HTLA cells, transient
T9 sequence (Q01726 whole entry): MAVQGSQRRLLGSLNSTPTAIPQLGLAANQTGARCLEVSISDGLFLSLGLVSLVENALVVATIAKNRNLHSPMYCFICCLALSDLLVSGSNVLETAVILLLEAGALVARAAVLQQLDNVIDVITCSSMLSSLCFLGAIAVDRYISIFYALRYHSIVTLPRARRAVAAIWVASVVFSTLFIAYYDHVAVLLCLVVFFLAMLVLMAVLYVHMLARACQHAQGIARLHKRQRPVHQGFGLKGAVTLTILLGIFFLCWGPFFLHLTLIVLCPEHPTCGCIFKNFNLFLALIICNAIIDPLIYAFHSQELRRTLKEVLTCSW

[16] = target: T10, 318 nonolfactory human GPCRs (Homo sapiens, UniProt Q14439); details: GPR176; C21 5 µM
T10 construct: expressed in transfected cells; host or cells: HTLA cells, transient
T10 sequence (Q14439 whole entry): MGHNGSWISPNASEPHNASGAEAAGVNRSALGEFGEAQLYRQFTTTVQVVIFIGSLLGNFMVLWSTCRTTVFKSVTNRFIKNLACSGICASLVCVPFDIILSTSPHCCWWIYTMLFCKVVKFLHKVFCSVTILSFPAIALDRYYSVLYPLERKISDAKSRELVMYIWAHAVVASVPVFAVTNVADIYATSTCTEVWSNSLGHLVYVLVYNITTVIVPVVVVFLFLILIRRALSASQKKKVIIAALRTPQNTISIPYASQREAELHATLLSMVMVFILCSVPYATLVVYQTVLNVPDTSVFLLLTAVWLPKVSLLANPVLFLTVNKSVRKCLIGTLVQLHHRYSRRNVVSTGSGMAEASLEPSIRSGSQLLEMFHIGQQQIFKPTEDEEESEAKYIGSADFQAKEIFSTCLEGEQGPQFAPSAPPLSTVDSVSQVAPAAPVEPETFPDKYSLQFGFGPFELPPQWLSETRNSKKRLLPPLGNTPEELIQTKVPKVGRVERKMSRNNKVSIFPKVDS

[17] = target: T11, 318 nonolfactory human GPCRs (Homo sapiens, UniProt Q15391); details: P2RY14; C21 5 µM
T11 construct: expressed in transfected cells; host or cells: HTLA cells, transient

[18] = target: T12, 318 nonolfactory human GPCRs (Homo sapiens, UniProt Q15760); details: GPR19; C21 5 µM
T12 construct: expressed in transfected cells; host or cells: HTLA cells, transient

[19] = target: T13, 318 nonolfactory human GPCRs (Homo sapiens, UniProt Q86SQ4); details: GPR126; C21 5 µM
T13 construct: expressed in transfected cells; host or cells: HTLA cells, transient

[20] = target: T14, 318 nonolfactory human GPCRs (Homo sapiens, UniProt Q969N4); details: TAAR8; C21 5 µM
T14 construct: expressed in transfected cells; host or cells: HTLA cells, transient

[21] = target: T15, 318 nonolfactory human GPCRs (Homo sapiens, UniProt Q96G91); details: P2RY11; C21 5 µM
T15 construct: expressed in transfected cells; host or cells: HTLA cells, transient

[22] = target: T16, 318 nonolfactory human GPCRs (Homo sapiens, UniProt Q96LB1); details: MRGPRX2; C21 5 µM
T16 construct: expressed in transfected cells; host or cells: HTLA cells, transient
T16 sequence (Q96LB1 whole entry): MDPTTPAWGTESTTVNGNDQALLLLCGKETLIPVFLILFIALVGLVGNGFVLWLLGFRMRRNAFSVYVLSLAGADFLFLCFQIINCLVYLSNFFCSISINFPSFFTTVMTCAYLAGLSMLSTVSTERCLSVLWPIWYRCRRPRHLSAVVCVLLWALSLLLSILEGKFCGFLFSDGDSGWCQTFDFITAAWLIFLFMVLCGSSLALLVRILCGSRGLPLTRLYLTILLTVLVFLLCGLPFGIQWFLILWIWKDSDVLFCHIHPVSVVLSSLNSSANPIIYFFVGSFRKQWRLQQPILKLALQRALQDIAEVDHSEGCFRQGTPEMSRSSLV

[23] = target: T17, 318 nonolfactory human GPCRs (Homo sapiens, UniProt Q96LB2); details: MRGPRX1; C21 5 µM
T17 construct: expressed in transfected cells; host or cells: HTLA cells, transient

[24] = target: T18, 318 nonolfactory human GPCRs (Homo sapiens, UniProt Q96P66); details: GPR101; C21 5 µM
T18 construct: expressed in transfected cells; host or cells: HTLA cells, transient
T18 sequence (Q96P66 whole entry): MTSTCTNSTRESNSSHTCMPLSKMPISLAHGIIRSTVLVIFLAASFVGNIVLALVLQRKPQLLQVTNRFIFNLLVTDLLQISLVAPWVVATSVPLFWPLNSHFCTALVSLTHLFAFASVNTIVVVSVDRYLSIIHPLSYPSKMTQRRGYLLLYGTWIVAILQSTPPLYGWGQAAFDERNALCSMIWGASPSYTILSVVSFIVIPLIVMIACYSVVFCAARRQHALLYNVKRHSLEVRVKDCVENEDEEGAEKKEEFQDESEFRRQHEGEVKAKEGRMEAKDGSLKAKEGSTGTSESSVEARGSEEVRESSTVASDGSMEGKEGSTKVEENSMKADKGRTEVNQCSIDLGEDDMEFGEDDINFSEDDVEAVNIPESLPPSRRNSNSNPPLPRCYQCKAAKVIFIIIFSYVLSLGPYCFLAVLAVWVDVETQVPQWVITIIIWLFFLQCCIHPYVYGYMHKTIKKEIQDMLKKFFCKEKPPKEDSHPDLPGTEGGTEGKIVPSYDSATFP

[25] = target: 318 nonolfactory human GPCRs (Homo sapiens, UniProt Q96PE1); details: GPR124; C21 5 µM
[26] = target: T19, 318 nonolfactory human GPCRs (Homo sapiens, UniProt Q99679); details: GPR21; C21 5 µM
T19 construct: expressed in transfected cells; host or cells: HTLA cells, transient
T19 sequence (Q99679 whole entry): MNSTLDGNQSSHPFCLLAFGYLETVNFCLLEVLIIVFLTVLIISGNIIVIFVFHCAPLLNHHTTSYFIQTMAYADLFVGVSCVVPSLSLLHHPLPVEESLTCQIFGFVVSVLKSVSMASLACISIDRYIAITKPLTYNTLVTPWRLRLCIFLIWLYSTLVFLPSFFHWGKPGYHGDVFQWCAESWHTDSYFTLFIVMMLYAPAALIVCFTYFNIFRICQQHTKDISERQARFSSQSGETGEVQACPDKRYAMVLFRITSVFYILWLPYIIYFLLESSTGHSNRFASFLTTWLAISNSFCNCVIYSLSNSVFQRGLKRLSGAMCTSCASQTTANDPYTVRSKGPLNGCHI

[27] = target: T20, 318 nonolfactory human GPCRs (Homo sapiens, UniProt Q9BXA5); details: SUCNR1; C21 5 µM
T20 construct: expressed in transfected cells; host or cells: HTLA cells, transient

[28] = target: T21, 318 nonolfactory human GPCRs (Homo sapiens, UniProt Q9BZJ6); details: GPR63; C21 5 µM
T21 construct: expressed in transfected cells; host or cells: HTLA cells, transient

[29] = target: T22, 318 nonolfactory human GPCRs (Homo sapiens, UniProt Q9GZN0); details: GPR88; C21 5 µM
T22 construct: expressed in transfected cells; host or cells: HTLA cells, transient
T22 sequence (Q9GZN0 whole entry): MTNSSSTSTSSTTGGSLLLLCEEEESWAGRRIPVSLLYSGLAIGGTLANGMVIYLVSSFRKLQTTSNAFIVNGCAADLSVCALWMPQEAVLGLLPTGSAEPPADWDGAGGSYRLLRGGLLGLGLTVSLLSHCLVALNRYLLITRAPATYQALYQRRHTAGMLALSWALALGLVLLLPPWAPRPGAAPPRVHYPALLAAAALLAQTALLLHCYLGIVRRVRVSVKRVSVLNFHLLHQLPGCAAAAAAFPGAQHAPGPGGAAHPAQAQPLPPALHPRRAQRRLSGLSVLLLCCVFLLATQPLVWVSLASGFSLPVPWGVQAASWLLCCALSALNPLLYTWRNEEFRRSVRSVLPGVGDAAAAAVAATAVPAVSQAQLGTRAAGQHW

[30] = target: T23, 318 nonolfactory human GPCRs (Homo sapiens, UniProt Q9H3N8); details: HRH4; C21 5 µM
T23 construct: expressed in transfected cells; host or cells: HTLA cells, transient
T23 sequence (Q9H3N8 whole entry): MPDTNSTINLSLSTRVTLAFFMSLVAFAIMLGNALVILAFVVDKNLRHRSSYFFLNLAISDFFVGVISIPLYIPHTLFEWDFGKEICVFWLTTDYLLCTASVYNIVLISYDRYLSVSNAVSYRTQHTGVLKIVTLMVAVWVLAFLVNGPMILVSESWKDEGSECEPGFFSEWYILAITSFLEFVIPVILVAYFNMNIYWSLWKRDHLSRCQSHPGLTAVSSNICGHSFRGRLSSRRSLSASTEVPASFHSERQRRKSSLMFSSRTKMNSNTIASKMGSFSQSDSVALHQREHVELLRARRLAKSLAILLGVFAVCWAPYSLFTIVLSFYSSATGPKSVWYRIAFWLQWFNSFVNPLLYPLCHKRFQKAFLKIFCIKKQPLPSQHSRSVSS

[31] = target: T24, 318 nonolfactory human GPCRs (Homo sapiens, UniProt Q9NPC1); details: LTB4R2B; C21 5 µM
T24 construct: expressed in transfected cells; host or cells: HTLA cells, transient

[32] = target: T25, 318 nonolfactory human GPCRs (Homo sapiens, UniProt Q9UJ42); details: GPR160; C21 5 µM
T25 construct: expressed in transfected cells; host or cells: HTLA cells, transient

[33] = target: T26, 318 nonolfactory human GPCRs (Homo sapiens, UniProt Q9Y2T6); details: GPR55; C21 5 µM
T26 construct: expressed in transfected cells; host or cells: HTLA cells, transient
T26 sequence (Q9Y2T6 whole entry): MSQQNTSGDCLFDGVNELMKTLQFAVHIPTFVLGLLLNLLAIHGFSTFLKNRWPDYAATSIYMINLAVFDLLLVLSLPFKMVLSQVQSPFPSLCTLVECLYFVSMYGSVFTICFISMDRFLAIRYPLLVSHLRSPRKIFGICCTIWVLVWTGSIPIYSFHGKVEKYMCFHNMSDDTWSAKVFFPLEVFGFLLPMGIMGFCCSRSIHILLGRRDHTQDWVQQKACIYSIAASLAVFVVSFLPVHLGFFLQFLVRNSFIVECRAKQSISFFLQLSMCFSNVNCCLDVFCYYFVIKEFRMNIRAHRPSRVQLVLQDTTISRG

c1ccc2c(c1)N=C(N1CCNCC1)c1ccccc1N2 [C21, 11-(1-piperazinyl)-5H-dibenzo[b,e][1,4]diazepine]
FOLD OVER BASAL [1]: 0.6 fold and 0.7 fold
FOLD OVER BASAL [2]: 0.7 fold and 0.8 fold
FOLD OVER BASAL [3]: 0.7 fold and 0.9 fold and 0.6 fold and 1.1 fold
FOLD OVER BASAL [4]: 0.9 fold and 0.8 fold and 0.5 fold and 0.6 fold
FOLD OVER BASAL [5]: 3.4 fold and 2.2 fold and 2 fold and 1.9 fold
FOLD OVER BASAL [6]: 0.8 fold and 1 fold and 0.5 fold and 0.7 fold
FOLD OVER BASAL [7]: 0.8 fold and 0.7 fold and 1.1 fold
FOLD OVER BASAL [8]: 0.4 fold and 0.3 fold
FOLD OVER BASAL [9]: 1.8 fold and 2.1 fold and 1.9 fold and 1.2 fold
FOLD OVER BASAL [10]: 0.5 fold and 0.8 fold and 0.6 fold
FOLD OVER BASAL [11]: 0.7 fold and 0.5 fold and 0.9 fold and 0.8 fold
FOLD OVER BASAL [12]: 0.3 fold and 0.2 fold and 0.4 fold
FOLD OVER BASAL [13]: 0.5 fold and 0.6 fold and 0.7 fold
FOLD OVER BASAL [14]: 1.1 fold and 1.2 fold and 1.7 fold
FOLD OVER BASAL [15]: 0.9 fold and 1.1 fold and 1 fold and 0.7 fold
FOLD OVER BASAL [16]: 0.3 fold and 0.6 fold and 0.5 fold and 0.4 fold
FOLD OVER BASAL [17]: 0.9 fold and 0.7 fold and 1.1 fold and 0.8 fold
FOLD OVER BASAL [18]: 0.8 fold and 0.9 fold and 1.1 fold
FOLD OVER BASAL [19]: 0.3 fold and 0.4 fold
FOLD OVER BASAL [20]: 0.5 fold and 0.8 fold
FOLD OVER BASAL [21]: 1.1 fold and 0.8 fold and 0.6 fold and 0.9 fold
FOLD OVER BASAL [22]: 1.3 fold and 1.6 fold and 1.5 fold
FOLD OVER BASAL [23]: 0.6 fold and 1.2 fold
FOLD OVER BASAL [24]: 1.2 fold and 1 fold and 0.9 fold
FOLD OVER BASAL [25]: 1 fold and 0.7 fold
FOLD OVER BASAL [26]: 0.9 fold and 0.8 fold and 1.2 fold and 0.7 fold
FOLD OVER BASAL [27]: 0.6 fold and 0.7 fold
FOLD OVER BASAL [28]: 0.6 fold and 0.5 fold and 0.9 fold
FOLD OVER BASAL [29]: 1.1 fold and 1.9 fold and 1.5 fold
FOLD OVER BASAL [30]: 6.3 fold and 4 fold and 5.7 fold and 3.8 fold
FOLD OVER BASAL [31]: 1 fold and 0.9 fold and 1.1 fold and 1.2 fold
FOLD OVER BASAL [32]: 1.3 fold and 1 fold and 0.8 fold
FOLD OVER BASAL [33]: 0.7 fold and 1 fold and 0.8 fold
